Test results published in patent publication US4076849A, “Control of nitrosamine formation in nitrite cured meat” (Canada Packers Limited, priority 1975, dated 1978).

What was measured:
[1] = Nitrosamine content after frying cured bacon slices streaked with a soya oil solution of the aromatic secondary amine; settings: 100 ppm
Procedure: In the case of o-methoxy-N-dodecylaminobenzene samples were tested at 100, 200 and 300 ppm levels. The controls were streaked with oil alone.

[2] = in vivo; cited from earlier work
[3] = Table III, controls (ppb): Ex 30 76.0 and 60.0, 31 29.0, 32-33 42.5, 34 32.5, 35-39 28.2, 40 17.5, 41 20.0, 42 19.1, 43-44 34.0, 45 23.0, below about 3 ppb is below accurate detection level

CCOc1ccc(NC(C)(C)C)cc1 [Example 42, p-Ethoxy-N-t-butylaminobenzene]
NITROSAMINES Test [1, 3]: 2.2 ppb

CCCCCCCCCCCCNc1ccc(OC)cc1OC [Example 45, o,p-Dimethoxy-N-dodecylaminobenzene]
NITROSAMINES Test [1, 3]: 2.5 ppb

CCCCCCCCCCCCNc1ccccc1 [Example 47, N-Dodecylaminobenzene]
NITROSAMINES Test ([1]; Table IV, controls (ppb): Ex 46 34.0, 47 76.0, 48-49 41.0, 50-54 36.2): 16.0 ppb

O=NN1CCCC1 [N-nitrosopyrrolidine]
carcinogenic in tests on experimental animals [2]: carcinogenic

CN(C)N=O [dimethylnitrosamine]
carcinogenic in tests on experimental animals [2]: carcinogenic
